According to patent publication US20250188030A1, “Biphenyl and Phenylpyridine Compounds” (Pfizer Inc., priority 2023, published 2025):
Where two headings read alike, the source gives them in different places.

What was measured:
MM.1S cells = experiment: MM1.S 10 Day Proliferation Assay (CellTiter-Glo); format: cell-based, Human
Description: Human B lymphoblast cell line MM.1S was obtained from American Type Culture Collection (ATCC), Manassas, VA USA, Cat. MM.1S (ATCC® CRL-2974™). Cells were cultured in RPMI (Thermo Fisher Scientific/Gibco Life Technologies Cat. #111875-093) plus 10% (v/v) FBS (Thermo Fisher Scientific/Gibco Life Technologies Cat. #26140-079) and 1% Penicillin-Streptomycin (Thermo Fisher Scientific/Gibco Life Technologies Cat. #15070063) at 37° C. in 5% CO2.
MM1.S cells were trypsinized cell viability count performed, and cells suspended in complete media at 5,556 cells/ml. Cells were then seeded (90 μl/well) into a 96-well round black/clear bottom, ULA (Ultra-Low Attachment surface plate (Corning cat #4520) at a density of 500 cells/well. Cells were then incubated for 16 hours at 37° C. and 5% CO2. Compound dilution plates were prepared in 96-well, clear U-bottom, polypropylene plates (Corning 3365) in 100% DMSO at 10 mM stock concentration in duplicate wells, using a 10-point serial dilution (1:3 dilutions). Compounds were diluted to 1:100 in growth medium. Then 10 μl of diluted compounds were added to each well of the cell plates using a Beckman FX liquid handling system such that the highest compound concentration tested was 10 μM final, with a 0.1% final DMSO concentration in the total volume of 100 μl. Plates were incubated for 10 total days at 37° C. and 5% CO2. Fresh media containing compound was refreshed at 5 days treatment.
Finally, the treatment plates were removed from the incubator and 100 μl of CellTiter-Glo Luminescent reagent was added to each well, and plates were equilibrated in the dark for 30 minutes. Plates were read on the PHERAstar plate reader using the 96-well with Luminescent reading mode. IC50 values were calculated using a four-parameter fit with GraphPad Prism version 9.5.1 or in house modified IDBS ActivityBase data analyzing package.

H3K9AC (HT1080 cells) = experiment: H3K9AC Sandwich ELISA Assay in HT1080 cells (KAT2A primary cell-based screening assay); design: species or system Human
Outline: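 HT1080 fibrosarcoma cells seeded 16 h, then treated 24 h at 37 °C with 10-point 1:3 compound dilutions (top 10 µM final, 0.1% DMSO). Acid lysates neutralized with butyrate/PMSF; H3K9ac measured by total-H3-capture sandwich ELISA with luminescent HRP readout, IC50 by four-parameter fit.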

KAT2A = KAT2A (Homo sapiens (Human), UniProt Q92830); experiment: KAT2A acetyltransferase biochemical assay (RapidFire mass spectrometry, AcCoA to CoA); conditions: read-out: KAT2A Ki at 1 μM AcCoA, 5 μM H3 1-21 peptide, 0.5 nM KAT2A, 90-minute reaction
Description: • A) Compound preparation • 1) Prepare 10 mM stock solutions in 100% DMSO from solid material. • 2) Serial dilute 10 mM, 1 mM, 0.1 or 0.01 mM compound stocks 3-fold in 100% DMSO for 11-point dose response. • B) Reagent preparation • 1) Prepare 1×assay buffer containing 40 mM bis tris propane pH 8.0, 10 mM NaCl, 0.5 mM EDTA, and 0.002% Tween-20. • 2) Dilute Histone peptide (CPC Scientific) and KAT enzyme together in assay buffer to 1.25×. • 3) Dilute AcCoA (Sigma) in assay buffer to 5×. • C) Enzyme reaction • 1) Final reaction conditions for each KAT assay in a 100ul assay reaction volume: • i) KAT2A 0.5 nM, 1 uM AcCoA, 5 uM H3 1-21 peptide, 90-minute reaction • ii) KAT2B 0.5 nM, 1 uM AcCoA, 5 uM H3 1-21 peptide, 90-minute reaction • 2) Add 2 ul of diluted compound series to the assay plate (96-well round-bottom polypropylene plates) or 2 ul of DMSO for control wells. • 3) Add 11 μL of 10% formic acid to 100% effect (HPE) control wells. • 4) Add 80 ul of 1.25× Histone peptide/KAT mix to the assay plate via Multidrop Combi (ThermoFisher). Incubate 15 min at room temperature. • 5) Add 20 ul of 5× AcCoA to the assay plate via Multidrop Combi. • 6) Stop the reaction after the indicated time with the addition of 11 ul of 10% formic acid via Multidrop Combi. • 7) Each reaction was analyzed using Rapid Fire mass spectrometry platform.
KAT enzymes were expressed using a baculovirus expression system and purified at Pfizer, La Jolla. […] Acetyl coenzyme A was purchased from Sigma-Aldrich (St. Louis, MO). All other biochemical reagents were purchased from Sigma-Aldrich or ThermoFisher Scientific (Waltham, MA).
KAT assays were performed at room temperature in assay buffer containing 1 μM AcCoA, 5 μM histone peptide, 40 mM bis tris propane pH 8.0, 10 mM NaCl, 0.5 mM EDTA 0.002% Tween-20. 80 ul of 1.25× Histone peptide/enzyme mix was added to a 96-well round-bottom polypropylene assay plate containing 2 ul of serially diluted test compound in 100% dimethyl sulfoxide (DMSO). To start the reaction, 20 ul of 5× AcCoA solution was added to the assay plate. KAT assays were terminated after 90 minutes with the addition of 11 ul of 10% formic acid. All assays used histone H3 (1-21) peptide. The final enzyme concentration for each KAT was as follows: KAT2A, 0.5 nM; KAT2B, 0.5 nM. […] Each reaction was analyzed using Rapid Fire mass spectrometry platform. This methodology leverages an Agilent 6495 triple quadrupole (QQQ) mass spectrometer coupled to a RapidFire model 365 to specifically capture and measure KAT2 acetyltransferase activity, converting AcCoA (substrate) to CoA (product).
Area under the curve (AUC) for both substrate and product peaks was determined for KAT2 at M.W. 809.6 [Substrate+H]+ and 767.3 [Product+H]+ with a +/−1 Da tolerance, respectively. Acetyltransferase activity (% of DMSO control) was calculated by: ((AUCProduct/AUCsubstrate)-AUCHPE)/(AUCZPE-AUCHPE))*100. Ki values were determined by fitting the % acetyltransferase activity at each inhibitor concentration to the Morrison equation for tightbinding competitive inhibitors using Pfizer proprietary curve fitting software.
To determine the inhibition of KAT enzymatic activity by test compounds, assay reactions were conducted in a volume of 100 μL in 96-well round-bottom polypropylene assay plate. The reactions were performed in assay buffer (40 mM bis tris propane, pH 8, 10 mM NaCl, 0.5 mM EDTA, 0.002% Tween-20).

[1] = Homo sapiens, HT-1080, H3K9AC sandwich ELISA

Chain of KAT2A (Q92830 whole entry): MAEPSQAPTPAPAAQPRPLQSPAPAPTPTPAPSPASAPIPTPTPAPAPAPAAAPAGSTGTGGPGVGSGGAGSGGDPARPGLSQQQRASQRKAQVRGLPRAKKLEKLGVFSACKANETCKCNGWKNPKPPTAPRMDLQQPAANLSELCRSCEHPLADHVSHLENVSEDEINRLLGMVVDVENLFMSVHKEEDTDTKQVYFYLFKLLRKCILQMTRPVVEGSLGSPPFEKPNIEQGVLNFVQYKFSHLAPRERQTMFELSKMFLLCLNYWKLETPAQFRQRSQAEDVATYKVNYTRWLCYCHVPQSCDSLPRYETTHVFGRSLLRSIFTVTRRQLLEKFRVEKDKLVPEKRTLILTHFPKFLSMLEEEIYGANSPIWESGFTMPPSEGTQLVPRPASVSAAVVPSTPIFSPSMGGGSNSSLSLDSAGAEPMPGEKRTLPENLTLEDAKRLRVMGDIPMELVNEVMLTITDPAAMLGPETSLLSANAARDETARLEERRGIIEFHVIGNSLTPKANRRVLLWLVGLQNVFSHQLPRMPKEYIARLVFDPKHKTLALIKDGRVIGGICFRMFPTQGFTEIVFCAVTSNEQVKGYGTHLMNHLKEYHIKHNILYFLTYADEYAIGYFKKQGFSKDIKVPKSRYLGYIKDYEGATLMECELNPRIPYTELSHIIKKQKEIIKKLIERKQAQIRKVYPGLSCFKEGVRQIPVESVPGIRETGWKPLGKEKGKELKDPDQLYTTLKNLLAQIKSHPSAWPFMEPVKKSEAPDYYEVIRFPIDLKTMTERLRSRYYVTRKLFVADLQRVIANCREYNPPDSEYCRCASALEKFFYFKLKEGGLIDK

Structure (SMILES)	IC50 (MM.1S cells; Homo sapiens, MM1.S, 240 h) [nM]	IC50 (H3K9AC (HT1080 cells); [1]) [nM]	Ki (KAT2A) [nM]	IC50 (H3K9AC (HT1080 cells); H3K9AC sandwich ELISA) [nM]	IC50 (MM.1S cells) [nM]
CN1CC2(CCCC2)C[C@H]1C(=O)N[C@@H]1CC[C@@H](Oc2cccc(C(=O)NS(C)(=O)=O)c2-c2cccc(F)c2C2CCC2)C1 (atropisomer, axis not shown) [Example I10, (3ξ)-N-[(1R,3R)-3-({(1ψ)-2′-cyclobutyl-3′-fluoro-6-[(methanesulfonyl)carbamoyl][1,1′-biphenyl]-2-yl}oxy)cyclopentyl]-2-methyl-2-azaspiro[4.4]nonane-3-carboxamide]	359	63.8	6.29	–	–
CN1CC(C)(C)C[C@H]1C(=O)N[C@@H]1CC[C@@H](Oc2cccc(C(=O)NS(=O)(=O)N3CCC3)c2-c2cccc(F)c2C2CCC2)C1 (atropisomer, axis not shown) [Example I13, N-[(1R,3R)-3-({(1ψ)-6-[(azetidine-1-sulfonyl)carbamoyl]-2′-cyclobutyl-3′-fluoro[1,1′-biphenyl]-2-yl}oxy)cyclopentyl]-1,4,4-trimethyl-L-prolinamide]	238	24.5	25	–	–
CCN(C)S(=O)(=O)NC(=O)c1cccc(O[C@@H]2CC[C@@H](NC(=O)[C@@H]3CC(C)(C)CN3C)C2)c1-c1cccc(F)c1C1CCC1 (atropisomer, axis not shown) [Example I14, N-[(1R,3R)-3-{[(1ψ)-2′-cyclobutyl-6-{[ethyl(methyl)sulfamoyl]carbamoyl}-3′-fluoro[1,1′-biphenyl]-2-yl]oxy}cyclopentyl]-1,4,4-trimethyl-L-prolinamide]	69.3	18.1	33.9	–	–
CC(C)S(=O)(=O)NC(=O)Cc1cccc(O[C@@H]2CC[C@@H](NC(=O)[C@@]3(F)CNC4(CCC4)C3)C2)c1-c1cccc(F)c1C1CCC1 (atropisomer, axis not shown) [Example I16, (7S)-N-[(1R,3R)-3-({(1ψ)-2′-cyclobutyl-3′-fluoro-6-[2-oxo-2-(propane-2-sulfonamido)ethyl][1,1′-biphenyl]-2-yl}oxy)cyclopentyl]-7-fluoro-5-azaspiro[3.4]octane-7-carboxamide]	31.1	–	0.03	5.8	–
CN(C)S(=O)(=O)NC(=O)Cc1cccc(O[C@@H]2CC[C@@H](NC(=O)[C@@]3(F)CNC4(CCC4)C3)C2)c1-c1cccc(F)c1C1CCC1 (atropisomer, axis not shown) [Example I17, (7S)-N-[(1R,3R)-3-({(1ψ)-2′-cyclobutyl-6-[2-(dimethylsulfamamido)-2-oxoethyl]-3′-fluoro[1,1′-biphenyl]-2-yl}oxy)cyclopentyl]-7-fluoro-5-azaspiro[3.4]octane-7-carboxamide]	1.8	–	0.02	0.6	–
CC1(C)C[C@](F)(C(=O)N[C@@H]2CC[C@@H](Oc3ccc(C(C)(C)C(=O)O)cc3-c3cccc(F)c3C3CCC3)C2)CN1 (single isomer, unassigned) [Example A4]	147	76.4	4.12	–	–
O=C(O)Cc1ccc(O[C@@H]2CC[C@@H](NC(=O)[C@@]3(F)CNC4(CCC4)C3)C2)c(-c2cccc(F)c2C2CCC2)c1 (single isomer, unassigned) [Example A7]	30.9	4.45	1.25	–	–
CC[C@](C)(C(=O)O)c1ccc(O[C@@H]2CC[C@@H](NC(=O)[C@]3(F)CNC4(CCC4)C3)C2)c(-c2cccc(F)c2C2CCC2)c1 (single isomer, unassigned) [Example A9]	–	–	0.84	11.1	135
CC[C@](C)(C(=O)O)c1ccc(O[C@@H]2CC[C@@H](NC(=O)[C@]3(F)CNC4(CCC4)C3)C2)c(-c2cccc(F)c2C2CCC2)c1 (single isomer, unassigned) [Example A12]	–	–	1.78	28.8	368
CC1(C)C[C@@](F)(C(=O)N[C@@H]2CC[C@@H](Oc3ccc(C(=O)O)cc3-c3cccc(F)c3C3CCC3)C2)CN1 (single isomer, unassigned) [Example A14]	157	–	1.32	4.88	–
C[C@H](C(=O)O)c1ccc(O[C@@H]2CC[C@@H](NC(=O)[C@@]3(F)CNC4(CCC4)C3)C2)c(-c2cccc(F)c2C2CCC2)c1 (single isomer, unassigned) [Example A19]	–	10	2.4	–	431
C[C@H](C(=O)O)c1ccc(O[C@@H]2CC[C@@H](NC(=O)[C@@]3(F)CNC4(CCC4)C3)C2)c(-c2cccc(F)c2C2CCC2)c1 (single isomer, unassigned) [Example A20]	–	–	2.53	9.3	186
CC(C)c1c(F)cccc1-c1cc(C(C)(C)C(=O)O)ccc1O[C@@H]1CC[C@@H](NC(=O)[C@@]2(F)CNC3(CCC3)C2)C1 (single isomer, unassigned) [Example A21]	–	–	> 99.9	> 1000	> 10000
CC(C)c1c(F)cccc1-c1cc(C(C)(C)C(=O)O)ccc1O[C@@H]1CC[C@@H](NC(=O)[C@@]2(F)CNC3(CCC3)C2)C1 (single isomer, unassigned) [Example A22]	–	–	0.34	4.33	101
O=C(O)Cc1ccc(O[C@@H]2CC[C@@H](NC(=O)[C@@]3(F)CNC4(CCCC4)C3)C2)c(-c2cccc(F)c2C2CCC2)c1 (single isomer, unassigned) [Example A25]	26	–	0.68	4.22	–
CC(C)(C(=O)O)c1ccc(O[C@@H]2CC[C@@H](NC(=O)[C@@]3(F)CNCC4(CCC4)C3)C2)c(-c2cccc(F)c2C2CCC2)c1 (single isomer, unassigned) [Example A27]	26.3	–	0.16	7.6	–
O=C(O)c1ccc(O[C@@H]2CC[C@@H](NC(=O)[C@@]3(F)CNCC4(CCC4)C3)C2)c(-c2cccc(F)c2C2CCC2)c1 (single isomer, unassigned) [Example A34]	7.8	–	0.21	1.4	–
O=C(O)c1ccc(O[C@@H]2CC[C@@H](NC(=O)[C@@]3(F)CNC4(CCCC4)C3)C2)c(-c2cccc(F)c2C2CCC2)c1 (single isomer, unassigned) [Example A36]	3.5	–	0.1	0.7	–
CC1(C)CNCC(F)(C(=O)N[C@@H]2CC[C@@H](Oc3ccc(C(=O)O)cc3-c3cccc(F)c3C3CCC3)C2)C1 (single isomer, unassigned) [Example A38]	18.3	–	0.02	4	–
CC(C)c1ccccc1-c1cc(C(=O)O)ccc1O[C@@H]1CC[C@@H](NC(=O)[C@@]2(F)CNC3(CCCC3)C2)C1 (single isomer, unassigned) [Example A40]	–	–	> 99.9	> 1000	> 1000
CCc1c(F)cccc1-c1cc(C(=O)O)ccc1O[C@@H]1CC[C@@H](NC(=O)[C@@]2(F)CNC3(CCCC3)C2)C1 (single isomer, unassigned) [Example A42]	–	–	0.41	8.4	37.4
CCc1c(F)cccc1-c1cc(C(=O)O)ccc1O[C@@H]1CC[C@@H](NC(=O)[C@@]2(F)CNC3(CCCC3)C2)C1 (single isomer, unassigned) [Example A43]	–	–	> 99.9	> 1000	> 1000
CC(C)(C(=O)NS(=O)(=O)N1CC(F)C1)c1ccc(O[C@@H]2CC[C@@H](NC(=O)[C@@]3(F)CNC4(CCC4)C3)C2)c(-c2cccc(F)c2C2CCC2)c1 (single isomer, unassigned) [Example B5]	13.3	9.93	0.09	–	–
